The values below come from patent US8623903B2, “Indolecarboxylic acid derivative having PGD2 receptor antagonistic activity” (Shionogi & Co., Ltd., priority 2005, dated 2014).

Experiment [1] concerns the target T1, DP receptor (Homo sapiens (Human), UniProt Q13258). Briefly: Receptor binding assay, [3H]-PGD2, platelet membrane. How it is done:
2) Receptor Binding Assay
A prepared WP was homogenated and a membrane fraction was collected with high-speed centrifugation. A compound of the present invention was added to the plate and [^3H]-PGD2 was also added. A platelet membrane, a protein concentration is 2 mg/mL, was added and mixed in the plate, and placed on ice for 2 hours. The reaction solution was transferred to a low protein-adsorptive filter and washed with a wash solution eight times using a cell harvester. After the final washing, water was removed sufficiently, and scintillator was added. DP inhibitory activity was investigated by measuring [^3H] by using Micro Beta.

Experiment [2] has as its target T1, DP receptor. Briefly: cAMP assay with washed platelets (DP inhibitory activity in vitro). The format is cell-based. Particulars: 100 nM of PGD2, cAMP by HTRF, read-out: IC50 (50% DP-inhibitory concentration in the cAMP assay). How it is done:
1) Preparation of Platelet and a Method of cAMP Assay
30 mL of peripheral blood was collected from a healthy volunteer using a syringe containing one ninth amount of 3.8% sodium citrate. After being centrifuged at 180 g for 10 minutes at room temperature, a supernatant was collected and used as Platelet Rich Plasma (PRP). The resulting PRP was washed with wash buffer and centrifuged three times (Washed Platelet: WP) and platelets were counted by a microcell counter. WP was added to a plate in amount of 1.5×10^8/assay and the plate was treated with 3-isobutyl-1-methylxanthin (IBMX; 0.5 mM) for 5 minutes. A reaction was initiated by adding 100 nM of PGD2 5 min after an addition of a test compound. The reaction was terminated with an addition of 1N hydrochloric acid after 2 minutes and the cells were destructed using 12% triton X-100. An amount of cAMP in the supernatant was assayed by Homogeneous Trangient Fluorescence (HTRF)

For experiment [3], the system named is OVA asthma model of rat. Put plainly: OVA asthma model of rat: mucus-secretion (mucin in airway lavage fluid, ELISA). The format is in vivo, Brown Norway (BN) Rats. Conditions: BN rats, 10 mg/kg p.o. once a day for three days, mucin in airway lavage fluid by ELISA vs control group. How it is done: (§1) Brown Norway (BN) Rats were sensitized by i.p. administration of 0.1 mg/mL of ovalbumin (OVA) and 1 mg of aluminum hydroxide gel. A solution of 1% OVA was aerosolized by ultrasonic nebulizer (NE-U17) and the rats were subjected to inhalation exposure of the aerosol for 30 minutes in an exposing chamber 12, 19, 26 and 33 days after the sensitization. One hour before the 4th exposure of the antigen, compounds of the present invention were administered in a dose of 10 mg/kg p.o. once a day for three days consecutively. In a control group, 0.5% of methyl cellulose was administered in place of the compound of the present invention.
(§2) After the measurement of increased hyperresponsive airway was completed, bronchoalveoli of the rats were washed with 5 mL of saline three times. Total cell number in the washings was counted by a hemacytometer under light microscope, and inhibition rates of infiltration of inflammatory cells against the control group were calculated. Further, mucin in the airway lavage fluid was measured by ELISA method using jacalin, a mucin-binding lectin, and the inhibition rates of mucus-secretion against the control group were calculated.
On the technique in general: ELISA stands for enzyme-linked immunosorbent assay.

The test system of experiment [4] is OVA asthma model of rat. Briefly: OVA asthma model of rat: infiltration of inflammatory cells in bronchoalveolar washings. Conditions: BN rats, 10 mg/kg p.o. once a day for three days, total cell number in bronchoalveolar washings vs control group. The format is in vivo, Brown Norway (BN) Rats. How it is done:
as §1, §2

Experiment [5] concerns OVA asthma model of rat. Briefly: OVA asthma model of rat: increased hyperresponsive airway (acetylcholine). The class given is in vivo, Brown Norway (BN) Rats. Conditions: BN rats, 10 mg/kg p.o. once a day for three days, vs control group, AUC of acetylcholine response curve. How it is done:
as §1
Under pentobarbital anesthesia (80 mg/kg, i.p.), acetylcholine (3.9, 7.8, 15.6, 31.3, 62.5, 125, 250 and 500 μg/kg) was injected to jugular vein of the rats successively from a lower dose at intervals of 5 minutes three days after the fourth exposure to the antigen, and immediate contractile reaction of airways (an increase of insufflation pressure) was measured by a modified method of Konnzett & Rössler. Inhibition rate of increased hyperresponsive airway against the control group was calculated based on area under the curve (AUC) obtained from concentration-response curve of acetylcholine.

T1 sequence (Q13258 whole entry): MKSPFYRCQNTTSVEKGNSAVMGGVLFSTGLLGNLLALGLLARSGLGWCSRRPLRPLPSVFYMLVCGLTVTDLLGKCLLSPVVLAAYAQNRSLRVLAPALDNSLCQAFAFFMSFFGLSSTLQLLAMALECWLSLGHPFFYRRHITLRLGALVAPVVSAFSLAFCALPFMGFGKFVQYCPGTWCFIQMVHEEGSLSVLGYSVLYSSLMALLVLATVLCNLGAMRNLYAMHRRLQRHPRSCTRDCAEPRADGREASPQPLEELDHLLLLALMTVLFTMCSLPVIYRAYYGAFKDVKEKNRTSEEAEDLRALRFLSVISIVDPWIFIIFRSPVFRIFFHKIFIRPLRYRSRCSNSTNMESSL

As to `CC(C)Oc1ccc(S(=O)(=O)N2CC[C@@H](n3cc(CC(=O)O)c4ccc(F)cc43)C2)cc1` [Compound I-31], in experiment [1], the Ki stood at 4.3 nM. Further, the IC50 in experiment [2] is 2.9 nM.
In the case of `CC(C)Oc1ccc(S(=O)(=O)N2CC[C@@H](n3cc(C(=O)O)c4ccc(Cl)cc43)C2)cc1` [Compound I-32], the IC50 in experiment [2] turned out to be 7 nM.
The compound `CC(C)Oc1ccc(S(=O)(=O)N2CCC(n3cc(CC(=O)O)c4ccccc43)CC2)cc1` [Compound I-1] displayed a Ki in experiment [1] of 7.7 nM. Besides, the “inhibition rate (%) mucus-secretion” value in experiment [3] is 52%. Besides, the “inhibition rate (%) infiltration of inflammatory cells” value (“inhibition rate (%) infiltration” for short) in experiment [4] stood at 58%. Also, the IC50 in experiment [2] stood at 4.7 nM. Also, the “inhibition rate (%) airway hyperresponsiveness” value in experiment [5] is reported as 43%.
Take `CC(C)Oc1ccc(S(=O)(=O)N2CCC(n3cc(CC(=O)O)c4cc(F)ccc43)CC2)cc1` [Compound I-14]: in experiment [1], the affinity corresponds to a Ki of 5.6 nM. Moreover, in experiment [2], the IC50 was determined as 2.2 nM.
As to `CCOc1ccc(S(=O)(=O)N2CCC(n3cc(CC(=O)O)c4cc(Cl)ccc43)CC2)cc1` [Compound I-6], the IC50 in experiment [2] turned out to be 4.8 nM.
In experiment [1], `CC(C)Oc1ccc(S(=O)(=O)N2CCC(n3cc(CC(=O)O)c4cc(Cl)ccc43)CC2)cc1` [Compound I-5] displayed a Ki of 22 nM. The IC50 in experiment [2] turned out to be 4.1 nM.
As for `CC(C)Oc1ccc(S(=O)(=O)N2CCC(n3cc(CC(=O)O)c4ccc(Cl)cc43)CC2)cc1` [Compound I-9], the IC50 in experiment [2] came to 2 nM.
Compound `CC(C)Oc1ccc(S(=O)(=O)N2CC[C@@H](n3cc(CC(=O)O)c4ccc(Cl)cc43)C2)cc1` [Compound I-30] had a Ki in experiment [1] of 5.4 nM. Moreover, the IC50 in experiment [2] worked out at 1.2 nM.
For the compound `CCOc1ccc(S(=O)(=O)N2CCC(n3cc(CC(=O)O)c4ccc(Cl)cc43)CC2)cc1` [Compound I-10], the IC50 in experiment [2] was 6.9 nM.
Same read-out and setting: as for `CC(C)Oc1ccc(S(=O)(=O)N2CCC(n3cc(CC(=O)O)c4cc(Cl)ccc43)C2)cc1` (centres unmarked) [Compound I-7], the figure is 1.8 nM.
Turning to `CC(C)Oc1ccc(S(=O)(=O)N2CC[C@H](n3nc(CC(=O)O)c4cc(Cl)ccc43)C2)cc1` [Compound I-21], in experiment [2], the IC50 turned out to be 3 nM.
On the same count and under the same terms, the value for `CCOc1ccc(S(=O)(=O)N2CCC(n3cc(CC(=O)O)c4ccc(Cl)cc43)C2)cc1` (centres unmarked) [Compound I-12] was 6.9 nM; that for `CC(C)Oc1ccc(S(=O)(=O)N2CC[C@@H](n3cc(CC(=O)O)c4ccccc43)C2)cc1` [Compound I-20] was 3.8 nM.
`CC(C)Oc1ccc(S(=O)(=O)N2CCC(n3cc(C(=O)O)c4ccccc43)CC2)cc1` [Compound I-23]: the Ki in experiment [1] was 1.4 nM. The “inhibition rate (%) mucus-secretion” value in experiment [3] was 72%. Also, the “inhibition rate (%) infiltration” value in experiment [4] is 79%. The IC50 in experiment [2] was found to be 1.6 nM. The “inhibition rate (%) airway hyperresponsiveness” value in experiment [5] is given as 46%.
Consider `CC(C)Oc1ccc(S(=O)(=O)N2CCC(n3cc(CC(=O)O)c4ccc(F)cc43)CC2)cc1` [Compound I-16], for which the IC50 in experiment [2] was determined as 1.3 nM.
As for `CC(C)Oc1ccc(S(=O)(=O)N2CCC(n3cc(CC(=O)O)c4ccc(Cl)cc43)C2)cc1` (centres unmarked) [Compound I-11], the “inhibition rate (%) mucus-secretion” value in experiment [3] was 30%. Moreover, in experiment [4], the “inhibition rate (%) infiltration” value is reported as 56%. Moreover, the IC50 in experiment [2] worked out at 4.9 nM. The “inhibition rate (%) airway hyperresponsiveness” value in experiment [5] came to 77%.
Regarding `CCOc1ccc(S(=O)(=O)N2CCC(n3cc(CC(=O)O)c4cc(Cl)ccc43)C2)cc1` (centres unmarked) [Compound I-8], in experiment [2], the IC50 stood at 4.9 nM.

For orientation: Ki means the dissociation constant of the complex between target and ligand, obtained from inhibition or displacement. A low value points to tighter binding.
